{"source": "patent US20110166030A1", "about": "“Prediction of response to docetaxel therapy based on the presence of TMPRSSG2:ERG fusion in circulating tumor cells” (priority 2009, published 2011)", "key": {"[1]": {"system": "metastatic prostate cancer", "experiment": "Response to therapy in metastatic androgen-independent prostate cancer patients (reduction in PSA levels)", "type": "in vivo, human", "excerpt": "Thus, disclosed herein is a method of expression profiling of gene of interest in CTCs using real time quantitative RT-PCR. Briefly, in a proof of concept, in total RNA isolated from circulating tumor cells of each of 40 metastatic prostate cancer patients gene expression profiles of 14 candidate genes were investigated by real time quantitative RT-PCR. […] Based on this application of RT-PCR based detection of the TMPRSS2-ERG fusion gene expression, patients are stratified for effective treatment with docetaxel chemotherapy, with an overall improvement in disease outcome and quality of life with very high specificity.\nBriefly, the 40 subjects were recruited from the Cedars-Sinai Medical Center in Los Angeles. Appropriate IRB approvals were obtained prior to patient sample collection. The inclusion criteria consisted of: patient must be at least 18 years old and with clinical diagnosis of Stage IV (metastatic) prostate cancer; patients must provide written consent/authorization to participate in this study, no signs or symptoms of active infection, willing and able to comply with procedures required in this protocol.\nAll patients were receiving treatments at Cedars-Sinai Medical Center at Los Angeles and all have metastatic prostate cancers. […]"}, "[2]": {"system": "castration resistant prostate cancer (CRPC)", "experiment": "CEC, CTC, ET-1 and TF levels during docetaxel treatment of CRPC patients", "type": "in vivo, human", "description": "Blood samples were collected from 231 patients with CRPC by venesection into 2×10 mL CellSave tubes (Veridex, LLC, Raritan, N.J.) and 1×6 mL serum tube in a multi-center prospective study. One CellSave tube was used to determine the number of CTC for prediction of OS. Results on CTC levels measured in this group have been previously published. The second collected CellSave tube was used to determine CEC numbers.\nIn order to assess a homogenous group of patients with respect to systemic therapy, we selected all who were scheduled to receive docetaxel or a docetaxel containing regimen (n=162) from the 231 patients. Treatment was continued until progression or unacceptable toxicity. Main eligibility criteria included age ≧18 years, pathological diagnosis of adenocarcinoma of the prostate, first or later line of chemotherapy, serum testosterone <1.7 nmol/L ([…]), Eastern Cooperative Oncology Group (ECOG) performance status 0-2, pretreatment serum PSA≧5 ng/mL, PSA progression (rises above a reference value) despite androgen deprivation therapy, and ability to sign informed consent. This study was approved by the local Institutional Medical Ethical Review Boards and is in agreement with the Helsinki declaration of 2000. Written informed consent was obtained from all patients prior to participation.\nCEC and CTC counts were determined prior to initiation of chemotherapy and after 2-5 weeks (first follow-up draw) and 6-8 weeks (second follow-up draw) of treatment. Serum concentrations of ET-1 and TF were also determined at these same time points.\nThe CellTracks® AutoPrep® and CellTracks Analyzer II® Systems (both Veridex, LLC, Raritan, N.J.) were used to count CTC and CEC. CTC were defined as intact cells positive for the nuclear stain 4′ 6-diamidinophenylindole (DAPI), the epithelial cell adhesion molecule (EpCAM), and for cytokeratins 8, 18 and 19 that also lacked expression of the panleukocyte marker CD45. CEC were identified as intact cells positive for DAPI, CD146 and CD105 that also lacked expression of CD45.\nThe technical details of both assays have been published previously. […]\nSerum concentrations (pg/mL) of ET-1 and TF-1 were determined by ELISA. […] Absorbance was read at 450 nm using a Titertek 212 MS microplate reader (Titertek, Huntsville, Ala.). […]\nLongitudinal biomarker data were analyzed using a random effects linear regression model using the maximum likelihood random effects estimator (the “xtreg, mle” command in STATA). […] To determine a cutoff value for survival analysis of CEC numbers and serum concentrations of ET-1 and TF, patient data were first stratified according percentiles (p0-p25; p25-p50, p50-p75, and p75-p100), in which either their baseline value or the change between baseline values and those determined at 2-5 weeks would fall. […]"}}}
{"smiles": "CC(=O)O[C@@]12CO[C@@H]1C[C@H](O)[C@@]1(C)C(=O)[C@H](O)C3=C(C)[C@@H](OC(=O)[C@H](O)[C@@H](NC(=O)OC(C)(C)C)c4ccccc4)C[C@@](O)([C@@H](OC(=O)c4ccccc4)[C@H]21)C3(C)C", "note": "[Docetaxel]", "values": [{"measurement": "Response to treatment, Number of Patients", "setting": "[1]; 40 metastatic prostate cancer patients, Tax 14 patients, Tax + RAD 11 patients treated", "value": 7}, {"measurement": "Patients with T1E4 or T2E4 fusion gene expression in CTCs who responded to the therapy", "setting": "[1]; five fusion-positive patients received Docetaxel-based therapy (Docetaxel or Docetaxel plus RAD001)", "value": 5, "unit": "patients"}, {"measurement": "Change in CTC numbers", "setting": "[2]; after 2-5 weeks of treatment, cells/7.5 mL blood", "value": "decreased significantly"}, {"measurement": "Change in serum TF", "setting": "[2]; after 6-8 weeks of therapy vs baseline and first follow-up draw, ELISA", "value": "significant decrease"}, {"measurement": "Serum concentrations of ET-1 during treatment", "setting": "[2]; baseline, 2-5 and 6-8 weeks, ELISA", "value": "remained constant"}, {"measurement": "Change in CEC numbers vs baseline", "setting": "[2]; first follow-up draw, 2-5 weeks after initiation of docetaxel, cells/4.0 mL blood", "value": "significant increase"}]}
